# According to US12708632B2 (Jazz Pharmaceuticals Research UK Limited, priority 2020, dated 2026):
# “Also recorded” adds a separate entry of the source.
# Tested on: seizures associated with Cortical Dysplasia and Cortical Brain Malformation
# Assay: Open label, expanded-access program of botanically derived purified CBD: caregiver-diary seizure frequency
# Type: in vivo, human patients
# Parameters: reduction in atonic seizures over the treatment period / reduction in tonic seizures over the treatment period / reduction in focal seizures without impairment over the treatment period: concentration or dose not given beside the values
# Conditions: for Seizure frequency: Focal with impairment: baseline 49.0; for Seizure frequency: Atonic: baseline 80.0
# Procedure: Subjects were required to be on one or more AEDs at stable doses for a minimum of two weeks prior to baseline and to have stable vagus nerve stimulation (VNS) settings and ketogenic diet ratios for a minimum of four weeks prior to baseline.
# Dose was then increased weekly by 5 mg/kg/day to a goal of 20 to 25 mg/kg/day.
# A maximum dose of 50 mg/kg/day could be utilised for patients who were tolerating the medication but had not achieved seizure control; these patients had further weekly titration by 5 mg/kg/day.
# Modifications were made to concomitant AEDs as per clinical indication.
# Seizure frequency, intensity, and duration were recorded by caregivers in a diary during a baseline period of at least 28 days. Changes in seizure frequency relative to baseline were calculated after at least 2 weeks and at defined timepoints of treatment.
# Patients may be defined as responders if they had more than 50% reduction in seizure frequency compared to baseline. the percent change in seizure frequency was calculated as follows: […]
# The percent change of seizure frequency may be calculated for any time interval where seizure number has been recorded. For the purpose of this example the percent change of seizure frequency for the end of the treatment period was calculated as follows: […]
smiles,measurement,setting,value
"C=C(C)[C@@H]1CCC(C)=C[C@H]1c1c(O)cc(CCCCC)cc1O [CBD, cannabidiol]",Seizure frequency: Tonic,"Patient 4, 96 weeks, CBD 50.0 mg/kg/day, baseline 196.0",22.0 seizures per week
same,Seizure frequency: Tonic,"Patient 4, 120 weeks, CBD 42.6 mg/kg/day, baseline 196.0",16.0 seizures per week
same,Seizure frequency: Tonic,"Patient 4, 132 weeks, CBD 49.8 mg/kg/day, baseline 196.0",36.0 seizures per week
same,reduction in tonic seizures over the treatment period,"Patient 4, treated for 132 weeks, vs baseline",81.6%
same,Seizure frequency: Tonic,"Patient 5, 4 weeks, CBD 20.0 mg/kg/day, baseline 4.0",3.2 seizures per week
same,Seizure frequency: Tonic,"Patient 5, 8 weeks, CBD 35.0 mg/kg/day, baseline 4.0",11.0 seizures per week
same,Seizure frequency: Tonic,"Patient 5, 12 weeks, CBD 50.0 mg/kg/day, baseline 4.0",1.0 seizures per week
same,Seizure frequency: Tonic,"Patient 5, 24 weeks, CBD 50.0 mg/kg/day, baseline 4.0",0.0 seizures per week
same,Seizure frequency: Tonic,"Patient 5, 36 weeks, CBD 47.0 mg/kg/day, baseline 4.0",0.0 seizures per week
same,Seizure frequency: Tonic,"Patient 5, 48 weeks, CBD 46.0 mg/kg/day, baseline 4.0",1.0 seizures per week
same,Seizure frequency: Tonic,"Patient 5, 60 weeks, CBD 49.0 mg/kg/day, baseline 4.0",1.0 seizures per week
same,Seizure frequency: Tonic,"Patient 5, 72 weeks, CBD 50.0 mg/kg/day, baseline 4.0",0.0 seizures per week
same,Seizure frequency: Tonic,"Patient 5, 84 weeks, CBD 50.0 mg/kg/day, baseline 4.0",0.0 seizures per week
same,Seizure frequency: Tonic,"Patient 5, 96 weeks, CBD 49.7 mg/kg/day, baseline 4.0",0.0 seizures per week
same,Seizure frequency: Tonic,"Patient 5, 108 weeks, CBD 49.7 mg/kg/day, baseline 4.0",0.0 seizures per week
same,Seizure frequency: Tonic,"Patient 5, 132 weeks, CBD 49.1 mg/kg/day, baseline 4.0",0.0 seizures per week
same,Seizure frequency: Tonic,"Patient 5, 144 weeks, CBD 50.0 mg/kg/day, baseline 4.0",0.0 seizures per week
same,reduction in tonic seizures over the treatment period,"Patient 5, treated for 144 weeks, vs baseline",100%
same,Seizure frequency: Focal without impairment,"Patient 6, 4 weeks, CBD 25.0 mg/kg/day, baseline 20.0",8.0 seizures per week
same,Seizure frequency: Focal without impairment,"Patient 6, 8 weeks, CBD 25.0 mg/kg/day, baseline 20.0",0.0 seizures per week
same,Seizure frequency: Focal without impairment,"Patient 6, 16 weeks, CBD 25.0 mg/kg/day, baseline 20.0",4.0 seizures per week
same,Seizure frequency: Focal without impairment,"Patient 6, 24 weeks, CBD 25.0 mg/kg/day, baseline 20.0",2.0 seizures per week
same,reduction in focal seizures without impairment over the treatment period,"Patient 6, treated for 24 weeks, vs baseline",90%
same,Seizure frequency: Focal with impairment,"Patient 7, 2 weeks, CBD 10.0 mg/kg/day",22.0 seizures per week
same,Seizure frequency: Focal without impairment,"Patient 7, 2 weeks, CBD 10.0 mg/kg/day, baseline 233.0",182.0 seizures per week
same,Seizure frequency: Focal with impairment,"Patient 7, 4 weeks, CBD 20.0 mg/kg/day",26.0 seizures per week
same,Seizure frequency: Focal without impairment,"Patient 7, 4 weeks, CBD 20.0 mg/kg/day, baseline 233.0",62.0 seizures per week
same,Seizure frequency: Focal with impairment,"Patient 7, 8 weeks, CBD 25.0 mg/kg/day",35.0 seizures per week
same,Seizure frequency: Focal without impairment,"Patient 7, 8 weeks, CBD 25.0 mg/kg/day, baseline 233.0",125.0 seizures per week
same,Seizure frequency: Focal with impairment,"Patient 7, 12 weeks, CBD 25.0 mg/kg/day",40.0 seizures per week
same,Seizure frequency: Focal without impairment,"Patient 7, 12 weeks, CBD 25.0 mg/kg/day, baseline 233.0",112.0 seizures per week
same,Seizure frequency: Focal with impairment,"Patient 7, 16 weeks, CBD 25.0 mg/kg/day",66.7 seizures per week
same,Seizure frequency: Focal without impairment,"Patient 7, 16 weeks, CBD 25.0 mg/kg/day, baseline 233.0",93.3 seizures per week
same,Seizure frequency: Focal with impairment,"Patient 7, 24 weeks, CBD 25.0 mg/kg/day",62.4 seizures per week
same,Seizure frequency: Focal without impairment,"Patient 7, 24 weeks, CBD 25.0 mg/kg/day, baseline 233.0",96.8 seizures per week
same,Seizure frequency: Focal with impairment,"Patient 7, 36 weeks, CBD 20.0 mg/kg/day",94.8 seizures per week
same,Seizure frequency: Focal without impairment,"Patient 7, 36 weeks, CBD 20.0 mg/kg/day, baseline 233.0",39.7 seizures per week
same,Seizure frequency: Focal with impairment,"Patient 7, 48 weeks, CBD 20.0 mg/kg/day",62.5 seizures per week
same,Seizure frequency: Focal without impairment,"Patient 7, 48 weeks, CBD 20.0 mg/kg/day, baseline 233.0",92.9 seizures per week
same,Seizure frequency: Focal with impairment,"Patient 7, 60 weeks, CBD 20.0 mg/kg/day",72.8 seizures per week
same,Seizure frequency: Focal without impairment,"Patient 7, 60 weeks, CBD 20.0 mg/kg/day, baseline 233.0",141.2 seizures per week
same,Seizure frequency: Focal with impairment,"Patient 7, 72 weeks, CBD 20.0 mg/kg/day",179.7 seizures per week
same,Seizure frequency: Focal without impairment,"Patient 7, 72 weeks, CBD 20.0 mg/kg/day, baseline 233.0",139.4 seizures per week
same,reduction in focal seizures without impairment over the treatment period,"Patient 7, treated for 72 weeks, vs baseline",40.2%
same,Seizure frequency: Tonic,"Patient 8, 4 weeks, CBD 20.0 mg/kg/day, baseline 280.0",6.0 seizures per week
same,Seizure frequency: Tonic,"Patient 8, 8 weeks, CBD 25.0 mg/kg/day, baseline 280.0",5.0 seizures per week
same,Seizure frequency: Atonic,"Patient 8, 12 weeks, CBD 25.0 mg/kg/day",12.0 seizures per week
same,Seizure frequency: Tonic,"Patient 8, 12 weeks, CBD 25.0 mg/kg/day, baseline 280.0",60.0 seizures per week
same,Seizure frequency: Atonic,"Patient 8, 16 weeks, CBD 25.0 mg/kg/day",24.0 seizures per week
same,Seizure frequency: Tonic,"Patient 8, 16 weeks, CBD 25.0 mg/kg/day, baseline 280.0",56.0 seizures per week
same,Seizure frequency: Atonic,"Patient 8, 24 weeks, CBD 25.0 mg/kg/day",4.0 seizures per week
same,Seizure frequency: Tonic,"Patient 8, 24 weeks, CBD 25.0 mg/kg/day, baseline 280.0",32.0 seizures per week
same,Seizure frequency: Atonic,"Patient 8, 36 weeks, CBD 10.0 mg/kg/day",4.0 seizures per week
same,Seizure frequency: Tonic,"Patient 8, 36 weeks, CBD 10.0 mg/kg/day, baseline 280.0",896.0 seizures per week
same,reduction in atonic seizures over the treatment period,"Patient 8, treated for 36 weeks, vs baseline",95.0%
same,"reductions in seizures over period of treatment, overall","all patients, atonic, tonic and focal without impairment seizures",40.2-100.0%
same,seizure freedom from tonic seizures,"one patient (patient 5), after 12 months of CBD treatment",seizure free of tonic seizures; also recorded: completely seizure free
same,"effect on frequency of atonic, tonic and focal without impairment seizures (in words)",patients with Cortical Dysplasia and Cortical Brain Malformation,effective in reducing the frequency; also recorded: significantly reduce the number of seizures; also recorded: significant reduction
